{"source": "patent US20170246210A1", "about": "“EX-VIVO INDUCED REGULATORY MESENCHYMAL STEM CELLS OR MYELOID-DERIVED SUPPRESSOR CELLS AS IMMUNE MODULATORS” (HADASIT MEDICAL RESEARCH SERVICES & DEVELOPMENT LTD, priority 2014, published 2017)", "key": {"[1]": {"test_system": "mMSCs", "assay": "FACS analysis of surface expression on mouse MSCs", "assay_type": "cell-based", "settings": "for EGFR surface expression: kynurenine 5 hours, with/without 10 μM CH-223191 pre-treatment 16 hours; for MHC I expression: FACS", "experimental": "(§1) TCT MSCs were treated with 40pM hTGFβ (PeproTech, Israel) for 24 h, and then with a cocktail of 40 pM hTGFβ, 100 ng/ml h/mIFNγ (PeproTech, Israel) and 150 μM Kynurenine (Sigma, Switzerland) for an additional 24 h before they were used for experiments.\n(§2) FACS analysis. The phenotype of the MSCs was analyzed by FACS using anti-CD29-PB and anti-hCD45-FITC (Biolegend), anti-CD11b-APC, anti-CD44-PE and anti-mCD45-FITC (SouthernBiotech), anti-CD105-PB, anti-CD73-PE, anti-CD90-PE and anti-Sca1-PE (eBioscience), anti-CD44-V450, anti-CD105-APC, anti-HLA DR-APC and anti-HLA ABC-PE (BD Bioscience) antibodies. The expression level of PD-L1 in mMSCs was analyzed by FACS with anti-B7-H1-PE (PD-L1) (eBioscience). To analyze EGFR internalization in kynurenine treated mMSCs, mMSCs were cultured in the presence of 10 μM CH223191 (Merck-Millipore) for 16 hours and then kynurenine was added for an additional 5 hours. EGFR expression was analyzed by FACS using anti-EGFR-PE (Bioss). FACS was performed using the aMACSQuant analyzer (Miltenyi Biotech, Germany) and the data was analyzed using FCS Express V3 software."}, "[2]": {"target": "T1, aryl hydrocarbon receptor (AhR) (Mus musculus, UniProt P30561)", "T1 construct": "Mouse and human MSCs were obtained from C57BL/6 mice and healthy donor BM respectively; endogenous in cells; host or cells: primary mouse MSCs from C57BL/6 mice", "T1 sequence (P30561 10-805 limits assumed)": "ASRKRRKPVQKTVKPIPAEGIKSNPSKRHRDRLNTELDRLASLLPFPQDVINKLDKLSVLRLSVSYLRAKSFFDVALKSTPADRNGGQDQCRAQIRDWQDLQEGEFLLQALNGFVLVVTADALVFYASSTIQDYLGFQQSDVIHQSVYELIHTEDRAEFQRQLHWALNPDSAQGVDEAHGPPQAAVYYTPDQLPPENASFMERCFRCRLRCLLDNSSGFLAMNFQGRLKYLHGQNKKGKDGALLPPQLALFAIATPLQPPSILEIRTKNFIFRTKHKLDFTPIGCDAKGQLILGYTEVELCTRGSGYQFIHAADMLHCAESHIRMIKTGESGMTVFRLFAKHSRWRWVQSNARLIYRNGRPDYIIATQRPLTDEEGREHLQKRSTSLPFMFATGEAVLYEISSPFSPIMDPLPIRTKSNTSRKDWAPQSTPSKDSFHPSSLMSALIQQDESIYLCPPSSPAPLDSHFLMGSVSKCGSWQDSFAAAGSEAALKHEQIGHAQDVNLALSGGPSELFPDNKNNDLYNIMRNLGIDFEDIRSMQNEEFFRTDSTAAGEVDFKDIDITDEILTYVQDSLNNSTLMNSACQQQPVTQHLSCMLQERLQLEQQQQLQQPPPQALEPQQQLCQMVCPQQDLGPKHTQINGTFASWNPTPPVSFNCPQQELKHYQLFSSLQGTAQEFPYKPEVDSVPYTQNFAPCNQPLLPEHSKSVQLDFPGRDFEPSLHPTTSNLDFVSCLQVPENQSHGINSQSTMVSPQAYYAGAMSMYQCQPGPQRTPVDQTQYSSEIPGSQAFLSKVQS", "assay": "AhR activation in mouse MSCs (qPCR of AhR dependent genes Cyp1a1, Cyp1b1)", "assay_type": "cell-based", "experimental": "(§3) RNA extraction and PCR analysis. Total cellular RNA was extracted using RNeasy® Mini Kit columns (QIAGEN) according to the manufacturer's protocols. 1 μg of total RNA was used to synthesize cDNA using High-Capacity cDNA kit (Applied Biosystems) following the supplier's instructions. Detection of transcript levels of iNOS, IDO, COX2, IL-6, CYP1a1 and CYP1b1, were performed using the TaqMan Gene Expression Assay Kit (Applied Biosystems), using HPRT-1 as a reference. All primers were purchased from Applied Biosystems. Real-Time PCR reactions were conducted using StepOne Plus (Applied Biosystems). Data was analyzed by StepOne Software version 2.2 (Applied Biosystems).\n(§4) To evaluate whether kynurenine activates AhR in mMSCs, the mRNA of treated/non-treated MSCs were tested for the expression level of two AhR dependent genes, Cyp1a1 and Cyp1b1. […] To ascertain that the up-regulation of these genes is AhR dependent, MSCs were treated with kynurenine for 24 hours in the presence/absence of the AhR antagonist CH-223191. The up-regulation of Cyp1a1 by kynurenine is inhibited in the presence of the antagonist both in mouse and human MSCs (previous FIGS. 9B, C)."}, "[3]": {"target": "T2, aryl hydrocarbon receptor (AhR) (Homo sapiens, UniProt P35869)", "T2 construct": "Mouse and human MSCs were obtained from C57BL/6 mice and healthy donor BM respectively; endogenous in cells; host or cells: primary human MSCs from healthy donor bone marrow", "T2 sequence (P35869 11-848)": "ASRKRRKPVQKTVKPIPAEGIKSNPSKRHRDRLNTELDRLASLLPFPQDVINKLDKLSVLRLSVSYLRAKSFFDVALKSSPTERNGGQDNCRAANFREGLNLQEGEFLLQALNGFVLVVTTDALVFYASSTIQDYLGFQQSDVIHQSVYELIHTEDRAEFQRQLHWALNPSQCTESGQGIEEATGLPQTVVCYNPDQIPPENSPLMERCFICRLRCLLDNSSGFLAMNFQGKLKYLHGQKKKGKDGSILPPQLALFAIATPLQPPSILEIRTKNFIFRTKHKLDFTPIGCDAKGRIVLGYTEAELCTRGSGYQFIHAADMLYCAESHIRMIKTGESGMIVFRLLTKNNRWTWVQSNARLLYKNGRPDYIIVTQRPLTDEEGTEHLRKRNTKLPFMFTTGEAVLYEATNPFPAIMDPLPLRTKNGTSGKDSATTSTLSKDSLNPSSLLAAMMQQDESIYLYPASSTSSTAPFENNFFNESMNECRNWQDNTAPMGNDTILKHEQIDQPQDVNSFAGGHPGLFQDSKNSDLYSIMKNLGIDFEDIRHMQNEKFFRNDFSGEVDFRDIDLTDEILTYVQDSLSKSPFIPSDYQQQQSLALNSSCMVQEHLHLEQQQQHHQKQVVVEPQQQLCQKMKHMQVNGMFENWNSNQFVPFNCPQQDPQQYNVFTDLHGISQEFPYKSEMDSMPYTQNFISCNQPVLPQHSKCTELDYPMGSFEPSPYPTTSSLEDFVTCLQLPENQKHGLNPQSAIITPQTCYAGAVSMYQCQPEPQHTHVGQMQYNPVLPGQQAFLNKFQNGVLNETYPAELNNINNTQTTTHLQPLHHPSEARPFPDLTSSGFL", "assay": "AhR activation in human MSCs (qPCR of AhR dependent gene Cyp1a1)", "assay_type": "cell-based", "experimental": "as §3, §4"}, "[4]": {"test_system": "hMSCs", "assay": "qPCR expression analysis in treated human MSCs", "assay_type": "cell-based", "settings": "for upregulation of COX2 by kynurenine: human MSCs, presence or absence of 10 μM CH-223191", "experimental": "Human MSCs (hMSCs). Bone marrow for hMHC was obtained from 17 adult healthy donors, males and females, following informed consent and under institutional Helsinki approval; hMSCs were cultured as previously described and the cells were used for experiments after 3-6 passages (Resnick, Barkats et al. 2013). TCT MSCs were treated with 40pM hTGFβ (PeproTech, Israel) for 24 h, and then with a cocktail of 40 pM hTGFβ, 100 ng/ml h/mIFNγ (PeproTech, Israel) and 150 μM Kynurenine (Sigma, Switzerland) for an additional 24 h before they were used for experiments. RNA extraction and PCR analysis. Total cellular RNA was extracted using RNeasy® Mini Kit columns (QIAGEN) according to the manufacturer's protocols. 1 μg of total RNA was used to synthesize cDNA using High-Capacity cDNA kit (Applied Biosystems) following the supplier's instructions. Detection of transcript levels of iNOS, IDO, COX2, IL-6, CYP1a1 and CYP1b1, were performed using the TaqMan Gene Expression Assay Kit (Applied Biosystems), using HPRT-1 as a reference. All primers were purchased from Applied Biosystems. Real-Time PCR reactions were conducted using StepOne Plus (Applied Biosystems). Data was analyzed by StepOne Software version 2.2 (Applied Biosystems)."}, "[5]": {"test_system": "mMSCs", "assay": "qPCR expression analysis in treated mouse MSCs", "assay_type": "cell-based", "settings": "for IL-6 mRNA expression: combination treatments, with/without 10 μM CH-223191; for COX2 mRNA expression: qPCR, combinations of TGFβ, IFNγ, kynurenine", "experimental": "MSCs isolation and culture. Mouse MSCs (mMSCs) were obtained from the bone marrow (BM) of C57BL/6 mice. BM cells were cultured at a concentration of 1*10^6 cells/ml in Mesencult basal medium supplemented with MSC stimulatory supplements (StemCell Technologies, Vancouver, BC), at 37° C. with 10% CO2. After 2-3 passages, the cells were harvested and CD11b^+ cells were depleted by EasySep® cell separation kit (StemCell Technologies, Vancouver, BC). Cells from 3 different lines were used for experiments after 5-20 passages.\nas §1\nRNA extraction and PCR analysis. Total cellular RNA was extracted using RNeasy® Mini Kit columns (QIAGEN) according to the manufacturer's protocols. 1 μg of total RNA was used to synthesize cDNA using High-Capacity cDNA kit (Applied Biosystems) following the supplier's instructions. Detection of transcript levels of iNOS, IDO, COX2, IL-6, CYP1a1 and CYP1b1, were performed using the TaqMan Gene Expression Assay Kit (Applied Biosystems), using HPRT-1 as a reference. All primers were purchased from Applied Biosystems. Real-Time PCR reactions were conducted using StepOne Plus (Applied Biosystems). Data was analyzed by StepOne Software version 2.2 (Applied Biosystems). […]"}, "[6]": {"test_system": "mMSCs", "assay": "ELISA on supernatants of treated mMSCs", "assay_type": "cell-based, mouse", "experimental": "ELISA. Quantification of PGE2 in supernatants collected from treated mMSCs and from co-cultures with splenocytes after 72 hours of culture, was performed by competitive enzyme-linked immunosorbent assay (ELISA) technique using a commercially available ELISA kit (R&D Systems, Minn., USA). IL-6, IL-17A and IFNγ in supernatants collected from treated mMSCs and/or from co-cultures with splenocytes/PBMCs were quantified using the ELISA Ready SET Go kits (eBioscience, San Diego, Calif., USA), according to the manufacturer's instructions. All determinations were made in triplicates."}, "[7]": {"test_system": "hMSCs", "assay": "FACS analysis of surface expression on human MSCs", "assay_type": "cell-based", "settings": "IFNγ induced", "experimental": "as §1, §2"}, "[8]": {"settings": "kynurenine 24 hours, 10 μM CH-223191"}, "[9]": {"settings": "mouse MSCs, presence or absence of 10 μM CH-223191"}, "[10]": {"settings": "murine MSCs, kynurenine alone vs non-treated"}}}
{"compound": "Cc1ccccc1N=Nc1ccc(NC(=O)c2ccnn2C)c(C)c1", "note": "[CH-223191]", "values": [{"measurement": "EGFR surface expression", "setting": "[1]", "value": "restored EGFR expression on the cell surface"}, {"measurement": "up-regulation of Cyp1a1 by kynurenine in presence of antagonist", "setting": "[2]; [8]", "value": "inhibited"}, {"measurement": "up-regulation of Cyp1a1 by kynurenine in presence of antagonist", "setting": "[3]; [8]", "value": "inhibited"}, {"measurement": "upregulation of COX2 by kynurenine", "setting": "[4]", "value": "reversed"}, {"measurement": "IL-6 mRNA expression", "setting": "[5]; mMSCs", "value": "partially reversed the effects of kynurenine"}, {"measurement": "enhanced expression of LIF", "setting": "[5]; [9]", "value": "reversed"}, {"measurement": "upregulation of COX2 by kynurenine", "setting": "[5]; [9]", "value": "reversed"}]}
{"compound": "Nc1ccccc1C(=O)CC(N)C(=O)O", "note": "(stereo not shown) [kynurenine]", "values": [{"measurement": "EGFR surface expression", "setting": "[1]", "value": "significantly reduced"}, {"measurement": "IL-6 secretion", "setting": "[6]; mMSCs culture medium", "value": "restricted this elevation"}, {"measurement": "AhR activation", "setting": "[2]", "value": "activates"}, {"measurement": "AhR activation", "setting": "[3]", "value": "activates"}, {"measurement": "COX2 mRNA expression", "setting": "[4]; hMSCs, addition of kynurenine", "value": "significantly elevated"}, {"measurement": "upregulation of COX2 by kynurenine", "setting": "[4]", "value": "AhR dependent"}, {"measurement": "IL-6 mRNA expression", "setting": "[5]; mMSCs", "value": "restricted this elevation"}, {"measurement": "HO-1 mRNA expression", "setting": "[5]; mMSCs, kynurenine added to the DCT", "value": "significantly up-regulated"}, {"measurement": "COX2 mRNA expression", "setting": "[5]; mMSCs", "value": "significant additive effects on the up-regulation"}, {"measurement": "upregulation of COX2 by kynurenine", "setting": "[5]; [9]", "value": "AhR dependent"}, {"measurement": "COX2 expression", "setting": "[5]; [10]", "value": "no effect"}, {"measurement": "IDO expression", "setting": "[5]; [10]", "value": "no effect"}, {"measurement": "IL6 expression", "setting": "[5]; [10]", "value": "no effect"}, {"measurement": "iNOS expression", "setting": "[5]; [10]", "value": "no effect"}]}
{"compound": "IFNγ", "values": [{"measurement": "MHC I expression", "setting": "[1]", "value": "induces up-regulation"}, {"measurement": "PGE2 secretion", "setting": "[6]; mMSCs supernatants", "value": "no effect"}, {"measurement": "COX2 mRNA expression", "setting": "[5]; mMSCs", "value": "no effect"}]}
{"compound": "TGFβ", "values": [{"measurement": "MHC I expression", "setting": "[7]", "value": "reduced the IFNγ induced expression"}, {"measurement": "MHC II expression", "setting": "[7]", "value": "reduced the IFNγ induced expression"}, {"measurement": "MHC I expression", "setting": "[1]", "value": "reduced the elevated expression"}, {"measurement": "COX2 mRNA expression", "setting": "[5]; mMSCs", "value": "increased"}]}
